Ends that are not written are not given here.
Experiments:
HeLa cells [1] = test: Calculation of number of exosomes in exosome fractions from treated HeLa cells (NanoSight LM10); assay type: cell-based, human
Excerpt: (§1) More specifically, a currently commercially available human cervical cancer cell line (HeLa cells) was used as the test cultured cells.
(§2) α-MEM medium containing 10% FBS (product of Gibco) was used to culture the HeLa cells. Furthermore, FBS free of native exosomes derived from animal serum was used for the FBS.
(§3) A suitable amount of medium containing FBS at a concentration of 10% was placed in cell culture dishes having a diameter of 100 mm followed by seeding with HeLa cells so that the number of cells per dish was about 2×10^6 cells.
(§4) Next, the cells were cultured in a-MEM medium containing 10% FBS having the sample peptide suspended therein at a concentration of 5 μM under conditions of 5% CO2 at 37° C. for 48 hours.
Subsequently, the culture broth was obtained and subjected to ultracentrifugation to isolate and recover the exosomes. More specifically, centrifugation was carried out continuously as described below under conditions of 4° C. […]
The number of exosomes was calculated for each of the three exosome fractions produced as described above. More specifically, the numbers of exosome particles in the exosome fractions were counted followed by calculating the number of exosomes using NanoSight LM10 (Malvern Panalytical Ltd.).

HeLa cells [2] = test: Measurement of amount of protein per exosome particle (BCA assay, equation (1)); assay type: cell-based, human
Excerpt: More specifically, the analyzing step preferably includes, for example, measurement of the total of amount of protein P (μg/mL) contained in the exosome fraction. A conventionally known method (such as BCA assay) can be used without any particular limitations to measure the amount of proteins. As a result, the average amount of protein per exosome, EP (μg), can be calculated based on the following equation (1). […]
as §1, §2, §3, §4
Subsequently, the culture broth was obtained and subjected to ultracentrifugation to isolate and recover the exosomes. […]
The amount of protein was measured for each of the three exosome fractions produced as described above. […]

FIGNLALSDLLAGVAYTANLLLKKRTLRKNDRKKR-CONH2 (FIGNLALSDLLAGVAYTANLLLKKRTLRKNDRKKR-NH2) [Example]
Exosome concentration (HeLa cells [1]; HeLa cells cultured 48 hours with 5 μM test substance, exosome fraction by ultracentrifugation, suspended in PBS): 8.31e+08 mL⁻¹
number of exosomes (change, in words) (HeLa cells [1]; HeLa cells, 5 μM, 48 hours, versus Comparative Examples): increase considerably
Amount of protein (HeLa cells [2]; HeLa cells cultured 48 hours with 5 μM test substance, total protein by BCA divided by particle number): 5.9 ×10^−8 μg/exosome
amount of proteins in the exosomes (change, in words) (HeLa cells [2]; HeLa cells, 5 μM, 48 hours, in comparison with Comparative Example 1 and Comparative Example 2): decreased considerably
